Reference: ChEMBL document CHEMBL5113389, “Topoisomerase I inhibitors: Challenges, progress and the road ahead” (Eur J Med Chem, 2022)

Legend:
[1] = Cytotoxicity against human U-937/CR cells assessed as cell growth inhibition incubated for 3 to 4 days by MTT assay; format: functional, cell-based
U-937 = assay: Cytotoxicity against human U-937 cells assessed as cell growth inhibition incubated for 3 to 4 days by MTT assay; format: functional, cell-based
P388 [2] = assay: Cytotoxicity against mouse P388 cells assessed as cell growth inhibition incubated for 3 to 4 days by MTT assay; format: functional, cell-based
P388CPT45 = assay: Cytotoxicity against mouse P388CPT45 cells assessed as cell growth inhibition incubated for 3 to 4 days by MTT assay; format: functional, cell-based
[3] = target: T1, DNA topoisomerase 1 (Homo sapiens) (UniProt P11387); assay: Inhibition of full-length recombinant human Top1 expressed in baculovirus infected Sf9 insect cells at 5 uM incubated for 30 mins relative to control
T1 sequence (whole entry): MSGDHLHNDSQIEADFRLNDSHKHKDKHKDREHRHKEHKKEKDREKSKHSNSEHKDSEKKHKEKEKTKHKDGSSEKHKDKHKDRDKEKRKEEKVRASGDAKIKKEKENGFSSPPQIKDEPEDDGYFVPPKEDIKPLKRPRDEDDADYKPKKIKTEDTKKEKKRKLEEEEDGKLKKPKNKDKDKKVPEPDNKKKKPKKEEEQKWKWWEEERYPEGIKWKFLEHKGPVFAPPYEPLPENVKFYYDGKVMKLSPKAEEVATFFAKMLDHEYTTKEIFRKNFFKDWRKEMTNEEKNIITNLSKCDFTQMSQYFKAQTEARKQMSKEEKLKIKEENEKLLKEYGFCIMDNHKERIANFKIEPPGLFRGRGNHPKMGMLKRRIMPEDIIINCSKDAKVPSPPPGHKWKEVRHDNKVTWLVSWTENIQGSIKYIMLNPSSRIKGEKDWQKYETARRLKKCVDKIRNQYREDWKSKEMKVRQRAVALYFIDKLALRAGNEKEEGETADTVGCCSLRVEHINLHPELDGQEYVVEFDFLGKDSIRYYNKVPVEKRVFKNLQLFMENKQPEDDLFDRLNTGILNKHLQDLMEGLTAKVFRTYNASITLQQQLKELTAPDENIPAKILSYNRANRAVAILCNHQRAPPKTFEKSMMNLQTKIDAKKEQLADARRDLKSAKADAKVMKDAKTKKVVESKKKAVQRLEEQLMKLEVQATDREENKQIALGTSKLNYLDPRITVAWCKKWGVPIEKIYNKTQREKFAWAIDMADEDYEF

[4] = target: T1, DNA topoisomerase 1 (Homo sapiens); assay: Inhibition of Top1 in [3H]-Thymidine-labeled human MCF7 cells assessed as Top1-DNA complex formation at 30 uM incubated for 60 mins followed by addition of salmon sperm DNA and subsequent addition of KCl relative to control; format: cell-based
HCT-116 [5] = assay: Cytotoxicity against human HCT-116 cells assessed as cell growth inhibition incubated for 3 days by SRB assay; format: functional, cell-based; conditions: HCT-116, 72 h
MCF7 = assay: Cytotoxicity against human MCF7 cells assessed as cell growth inhibition incubated for 3 days by SRB assay; format: functional, cell-based; conditions: MCF7, 72 h
RPMI 8402 = assay: Cytotoxicity against human RPMI 8402 cells assessed as cell growth inhibition measured after 4 days by MTT assay; format: functional, cell-based; conditions: RPMI 8402, 96 h
K5 = assay: Cytotoxicity against human camptothecin-resistant K5 cells assessed as cell growth inhibition measured after 4 days by MTT assay; format: functional, cell-based; conditions: K5, 96 h
HCT-116 [6] = assay: Cytotoxicity against human HCT-116 cells assessed as cell growth inhibition incubated for 72 hrs by MTT assay; format: functional, cell-based; conditions: HCT-116, 72 h
K562 = assay: Cytotoxicity against human K562 cells assessed as cell growth inhibition incubated for 72 hrs by MTT assay; format: functional, cell-based; conditions: K562, 72 h
[7] = target: T1, DNA topoisomerase 1 (Homo sapiens); assay: Inhibition of human Top1 expressed in Escherichia coli assessed as enzyme-mediated DNA cleavage by measuring relative effective concentration incubated for 30 mins relative to topotecan
HCT-116 [8] = assay: Cytotoxicity against human HCT-116 cells assessed as cell growth inhibition measured after 4 days by MTT assay; format: functional, cell-based; conditions: HCT-116, 96 h
P388 [9] = assay: Cytotoxicity against mouse P388 cells assessed as cell growth inhibition; format: functional, cell-based
CCRF-CEM = assay: Cytotoxicity against human CEM cells assessed as cell growth inhibition; format: functional, cell-based

SMILES: COc1cc2ccc3c4cc5c(cc4ncc3c2cc1OC)OCO5
- IC50 [1]: 50 nM
- IC50 (U-937): 40 nM
- IC50 (P388 [2]): 190 nM
- IC50 (P388CPT45): 180 nM

SMILES: O=c1c2ccccc2nc2n1Cc1cc3c(Cl)cccc3nc1-2
- inhibition [3]: 48%

SMILES: CN1c2ccccc2C(=O)N2CCc3c([nH]c4ccccc34)C21 (stereo not given)
- inhibition [4]: 24.2%

SMILES: CC[C@@]1(O)C(=O)Cc2c1cc1n(c2=O)Cc2c-1nc1cc3c(cc1c2C1CCC1)OCO3
- IC50 (HCT-116 [5]): 6 nM
- IC50 (MCF7): 3 nM

SMILES: COc1cc2c(=O)n(CCN(C)C)c3c4cc([N+](=O)[O-])ccc4ncc3c2cc1OC
- IC50 (RPMI 8402): 18 nM

SMILES: O=c1c2ccccc2nc2n1Cc1cc3ccccc3nc1-2
- inhibition [3]: 18%

SMILES: COc1cc2c(=O)n(CCN(C)C)c3c4ccc([N+](=O)[O-])cc4ncc3c2cc1OC
- IC50 (RPMI 8402): 75 nM

SMILES: CN(C)CCn1c(=O)c2ccc([N+](=O)[O-])cc2c2cnc3cc4c(cc3c21)OCO4
- IC50 (RPMI 8402): 3 nM

SMILES: COc1cc2ncc3c4cc5c(cc4ccc3c2cc1OC)OCO5
- IC50 (RPMI 8402): 4500 nM
- IC50 (K5): 10800 nM

SMILES: O=c1c2ccccc2nc2n1Cc1c-2nc2ccccc2c1C(F)(F)F
- IC50 (HCT-116 [6]): 17000 nM
- IC50 (K562): 21000 nM

SMILES: COc1cc2c(=O)n(CCN(C)C)c3c4cc(N)ccc4ncc3c2cc1OC
- IC50 (RPMI 8402): 40 nM

SMILES: COc1cc2c(=O)n(CCN(C)C)c3c4ccc(N)cc4ncc3c2cc1OC
- IC50 (RPMI 8402): 100 nM

SMILES: O=c1c2ccccc2nc2n1Cc1cc3c(Br)cccc3nc1-2
- inhibition [3]: 54%

SMILES: CN(C)CCn1c(=O)c2cc([N+](=O)[O-])ccc2c2cnc3cc4c(cc3c21)OCO4
- IC50 (RPMI 8402): 2 nM
- Ratio [7]: 0.1

SMILES: COc1ccc2c(ccc3c4cc5c(cc4nnc23)OCO5)c1
- IC50 (RPMI 8402): 70 nM
- IC50 (HCT-116 [8]): 40 nM

SMILES: COc1cc(-c2c3c4cc(OC)c(O)cc4oc(=O)c3n3ccc4cc(O)c(OC)cc4c23)ccc1O [LAMELLARIN D]
- IC50 (P388 [9]): 136 nM
- IC50 (CCRF-CEM): 14 nM
